Patent US5834284A, “N-acetylglucosaminyl transferase gene coding therefor and process for production thereof” (Suntory Limited, priority 1992, dated 1998)

Experiments:
GnT-V expression product = target: T1, GnT-V expression product (Homo sapiens, UniProt Q09328); test: Enzyme activity of cloned GnT-V cDNA expressed in COS-1 cells; assay type: biochemical; conditions: supernatant of disrupted COS-1 cells
T1 sequence (Q09328 1-741): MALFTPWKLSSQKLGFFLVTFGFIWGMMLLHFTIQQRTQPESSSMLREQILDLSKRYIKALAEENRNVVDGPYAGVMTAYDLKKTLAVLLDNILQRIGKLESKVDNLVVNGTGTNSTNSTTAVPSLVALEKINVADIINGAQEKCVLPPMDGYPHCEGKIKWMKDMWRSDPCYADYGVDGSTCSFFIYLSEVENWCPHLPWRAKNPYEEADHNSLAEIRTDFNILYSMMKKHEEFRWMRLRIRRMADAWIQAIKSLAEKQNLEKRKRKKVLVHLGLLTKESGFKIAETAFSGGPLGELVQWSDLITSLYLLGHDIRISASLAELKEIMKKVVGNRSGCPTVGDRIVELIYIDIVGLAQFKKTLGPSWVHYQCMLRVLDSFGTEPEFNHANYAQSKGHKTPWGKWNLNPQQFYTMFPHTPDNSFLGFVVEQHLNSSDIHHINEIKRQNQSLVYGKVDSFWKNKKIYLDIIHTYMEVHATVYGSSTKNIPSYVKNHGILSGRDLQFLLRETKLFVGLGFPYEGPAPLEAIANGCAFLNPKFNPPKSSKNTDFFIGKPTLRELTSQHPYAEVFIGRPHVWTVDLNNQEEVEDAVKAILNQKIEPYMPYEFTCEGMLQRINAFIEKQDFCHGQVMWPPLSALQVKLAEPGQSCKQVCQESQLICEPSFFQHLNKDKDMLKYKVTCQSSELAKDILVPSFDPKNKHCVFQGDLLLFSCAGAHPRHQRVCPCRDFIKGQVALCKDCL
Protocol: The expression vector constructed in Example 8 was used to express the GnT-V cDNA fragment in animal cells and GnT-V activity of the expressed protein was tested.
Expression vector containing GnT-V cDNA fragment was transfected to COS-1 cells, animal cells for expression, by electroporation. Namely, about 5×10^6 CO.S-1 cells previously prepared were suspended in HEPES buffer (50 mM Hepes, 137 mM NaCl, 5 mM KCl, 0.7 mM NaHPO3, 6 mM dextrose, pH 7.05), 60 μg of the above-mentioned plasmid was added thereon, and 800 μl of the suspension was subjected to electroporation in an electroporator (Bio-Rad) at 250V, […]. Next, all the suspensions of COS-1 cells electroporated with GnT-V gene was plated in a petri dish having the diameter of 6 cm, and cultured at 37° C. in 5% CO2 for 48 hours. The cultured ceils were collected with a rubber-coated police man bar, and suspended in 50 μl of PBS buffer, and the cells were disrupted with a sonicator. Next, the disruptant was centrifuged to collect a supernatant, and 15 μl of the supernatant was used to assay enzyme activity.

[1] = target: T2, GnT-V (β1,6-N-acetylglucosaminyl transferase) (Homo sapiens, UniProt Q09328); test: GnT-V enzyme activity assay with fluorescence-labeled sugar acceptors, product separated by HPLC; assay type: biochemical
T2 construct: 73/60 kDa
T2 sequence (Q09328 31-741): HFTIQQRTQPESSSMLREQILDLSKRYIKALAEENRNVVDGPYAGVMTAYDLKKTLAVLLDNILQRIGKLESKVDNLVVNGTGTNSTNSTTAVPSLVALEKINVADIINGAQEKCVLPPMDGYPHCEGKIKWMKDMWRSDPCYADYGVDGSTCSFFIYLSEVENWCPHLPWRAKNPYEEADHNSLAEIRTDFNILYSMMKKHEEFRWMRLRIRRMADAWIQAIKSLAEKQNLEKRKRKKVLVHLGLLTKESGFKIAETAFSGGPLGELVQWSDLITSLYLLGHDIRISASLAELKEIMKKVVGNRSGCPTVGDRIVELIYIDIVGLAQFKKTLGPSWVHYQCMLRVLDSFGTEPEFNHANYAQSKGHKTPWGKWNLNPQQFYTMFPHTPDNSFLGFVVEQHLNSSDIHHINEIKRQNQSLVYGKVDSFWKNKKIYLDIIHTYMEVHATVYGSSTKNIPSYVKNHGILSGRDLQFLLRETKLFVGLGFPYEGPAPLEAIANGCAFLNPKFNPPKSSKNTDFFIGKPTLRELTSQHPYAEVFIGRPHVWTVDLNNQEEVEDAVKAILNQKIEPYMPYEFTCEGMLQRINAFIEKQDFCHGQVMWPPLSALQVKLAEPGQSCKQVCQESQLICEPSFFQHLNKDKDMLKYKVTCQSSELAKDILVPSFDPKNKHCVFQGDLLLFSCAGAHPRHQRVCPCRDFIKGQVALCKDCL
Excerpt: An enzyme activity can be easily assayed by labeling an acceptor with a radioisotope or with fluorescent substance, adding the enzyme and separating the reaction product by high performance liquid chromatography (HPLC). More specifically, the method reported by Tanigichi et al. (Taniguchi, N., Nishikawa, A., Fujii, S., and Gu. J., Methods Enzymol. 179, 397-408 (1989); Nishikawa, H., Gu, J., Fujii, S., and Tanigichi, N., Biochem. Biophys. Acta, 1035, 313-318 (1990)) may be followed.
Namely, the enzyme activity of GnT-V can be assayed using GnGn-2-aminopyridine (GnGn-bi-PA) as an acceptor, and UDP-GluNAc (Sigma) as a donor. Activity is shown by an amount of transferred N-acetylglucosamine/hour/mg protein. Note, an amount of protein can be measured according to a reported method (Redinbaugh, M. G., and Turley, R. B., Anal. Biochem. 153, 267-271 (1986)) using a BCA kit (Pierce Chemical Company, Rockford, Ill.) and using bovine serum albumin as a standard.
Substrate specificity was determined using the following compound as sugar acceptors according to the above-mentioned enzyme activity measuring method. [drawing 1]
GnGnF--, GnGF--, GGnF--, Gn(Gn)GnF--, Gn(Gn)Gn--, GG--, GnGn--, MM-- and GnM-- were isolated from the bovine IgG treated with anhydrous hydrazine and then labeled with a fluorescence label according to Hase et al. method (Hase, S., Ibuki, T., and Ikehara, T., J. Biochem. 95, 197-203 (1984). The purified GnT-V was diluted with PBS buffer to a final concentration of 0.1 mg protein/ml, and then reacted with each fluorescence-labeled sugar acceptor. A result is shown in Table 2.

Compound: CC(=O)N[C@H]1[C@H](O[C@@H]([C@H](O)[C@H](CNc2ccccn2)NC(C)=O)[C@H](O)CO)O[C@H](CO)[C@@H](O[C@@H]2O[C@H](CO[C@H]3O[C@H](CO)[C@@H](O)[C@H](O)[C@@H]3O[C@@H]3O[C@H](CO)[C@@H](O)[C@H](O)[C@H]3NC(C)=O)[C@@H](O)[C@H](O[C@H]3O[C@H](CO)[C@@H](O)[C@H](O)[C@@H]3O[C@@H]3O[C@H](CO)[C@@H](O)[C@H](O)[C@H]3NC(C)=O)[C@@H]2O)[C@@H]1O [GnGn-bi-PA, GlcNAcβ1-2Manα1-3-(GlcNAcβ1-2Manα1-6)Manβ1-4GlcNAcβ1-4GlcNAc-2-aminopyridine]
- conversion of substrate by expression product GnT-V (HPLC elution profile, FIG. 10) (GnT-V expression product): converts a substrate GnGn-bi-PA to a product GnGnGn-tri'-PA
- Relative reaction rate ([1]; acceptor 70 μM, purified GnT-V 0.1 mg protein/ml, GnGn-bi-PA = 100): 100
- reactivity relative to GnGn-bi-PA acceptor taken as 100% ([1]; substrate specificity): 100%
